≈ marks a conversion by molar mass, not a printed value. Where two headings read alike, the source gives them in different places.
Columns and labels:
VZV/TK^- strain = details: read-out: EC50 against VZV/TK- strain; cited from earlier work
cytomegalovirus AD169 = details: read-out: EC50 against cytomegalovirus AD169 strain; cited from earlier work
[1] = tested on: cytomegalovirus DAVIS 07/1; details: read-out: EC50 against cytomegalovirus DAVIS 07/1 strain; cited from earlier work
Molt4/C8 = details: cited from earlier work
L1210/0 = details: cited from earlier work
VZV = details: cited from earlier work
[2] = tested on: Influenza virus (Flu A, strain A/Puerto Rico/8/34 (H1N1)); assay: microbe, parasite or virus in culture; type: cell-based; details: read-out: IC50 Influenza Virus
[3] = tested on: herpes simplex virus type 1 (HSV-1); assay: microbe, parasite or virus in culture; type: cell-based; details: for IC50: read-out: IC50 Herpes Simplex Virus Type 1
[4] = tested on: human adenovirus type 5 (AdV5); assay: microbe, parasite or virus in culture; type: cell-based; details: read-out: IC50 Human Adenovirus Type 5
Yellow Fever Virus = assay: microbe, parasite or virus in culture; type: cell-based; details: read-out: IC50 Yellow Fever Virus
Chikungunya Virus = assay: microbe, parasite or virus in culture; type: cell-based; details: read-out: IC50 Chikungunya Virus
Enterovirus 71 = assay: microbe, parasite or virus in culture; type: cell-based; details: read-out: IC50 Enterovirus 71
cells [5] = tested on: cells
cells [6] = tested on: cells; remark: listed apart in the source
cells [7] = tested on: cells; remark: listed apart in the source
herpes = details: cited from earlier work
coxsackievirus B4 = details: cited from earlier work
HCMV = details: read-out: IC50 against HCMV; cited from earlier work
EpsteinBarr virus = details: read-out: IC50 against EpsteinBarr virus; cited from earlier work
in vitro [8] = details: dog
in vitro [9] = details: African green monkey
in vitro [10] = assay: in vitro
in vitro [11] = assay: in vitro; remark: listed apart in the source
in vitro [12] = assay: in vitro; remark: listed apart in the source
[13] = unidentified influenza virus, H1N1, MDCK, 48 h
[14] = Human alphaherpesvirus 1, Vero, 72 h
[15] = Human mastadenovirus C, Vero, 72 h
[16] = CC50 (Herpes Simplex Virus Type 1)

Nc1nc(Cl)c2nc[nH]c2n1 [VIII (6-Cl-2-aminopurine)]
EC50 (VZV/TK^- strain): 2.1 µM | EC50 (cytomegalovirus AD169): 0.44 µM | EC50 [1]: 0.39 µM

Nc1nc(O)c2ncn(COC(CO)CO)c2n1 [ganciclovir]
EC50 (cytomegalovirus AD169): 0.25 µM | EC50 [1]: 0.4 µM

Nc1nc(Cl)c2nc[nH]c2n1 [V (6-Cl-2-amino-purine)]
IC50 Molt4/C8, cytostatic activity (Molt4/C8): 13.2 µg/mL (≈ 77.8 µM) | IC50 L1210/0, cytostatic activity (L1210/0): 16.2 µg/mL (≈ 95.5 µM)

O=c1[nH]c(=O)n(CC2(CO)CC2CO)cc1C=CBr (centres unmarked) [II]
anti-VZV activity, IC50 (VZV): 0.027 µg/mL

(1S,4S,5S,7R)-5-Chloro-7-((6-((4-hydroxyphenethyl)amino)-9H-purin-9-yl)methyl)bicyclo[2.2.1]heptan-2-ol [Compound 6j]
IC50 [2]: > 234 µM | activity against HSV-1 in words [3]: active against herpes | IC50 [3]: 15 ± 2 µM | IC50 [4]: > 70 µM | IC50 (Yellow Fever Virus): > 100 µM | IC50 (Chikungunya Virus): > 100 µM | IC50 (Enterovirus 71): 42 ± 3.2 µM | CC50 (MDCK cells): 467 ± 28 µM | CC50 (cells [5]): > 100 µM | CC50 (cells [6]): > 100 µM | CC50 (cells [7]): > 100 µM

Nc1nc2c(ncn2CC2(CO)CC2CO)c(=O)[nH]1 (centres unmarked) [I]
antiherpetic activity in words (herpes): extremely potent antiherpetic activity

OCC(Cc1ccccc1)Nc1ncnc2c1ncn2C1CC2C(Cl)CC1C2CO (centres unmarked) [Xc]
EC50 against coxsackievirus B4 (coxsackievirus B4): 0.6 µg/mL (≈ 1.4 µM)

Nc1nc2c(ncn2/C=C2/C[C@H]2CO)c(=O)[nH]1 [IV]
IC50 (HCMV): 0.04 to 2.1 µM | IC50 (EpsteinBarr virus): 0.3 µM

Nc1ncnc2c1ncn2/C=C1/C[C@H]1CO [III]
IC50 (HCMV): 1 to 2.1 µM | IC50 (EpsteinBarr virus): 0.2 µM

CCOc1ncnc2c1ncn2C[C@H]1[C@@H]2CC(O)[C@H]1C[C@@H]2Cl (stereo partly drawn) [Compound 7b, (1S,4S,5S,7R)-5-Chloro-7-((6-ethoxy-9H-purin-9-yl)methyl)bicyclo[2.2.1]heptan-2-ol]
IC50 [2, 13]: > 929 µM | IC50 [3, 14]: 524 ± 63 µM | IC50 [4, 15]: > 929 µM | IC50 (Yellow Fever Virus; Yellow fever virus): > 100 µM | IC50 (Chikungunya Virus; Chikungunya virus): > 100 µM | IC50 (Enterovirus 71; Enterovirus A): > 100 µM | CC50 (in vitro [8]): > 929 µM | CC50 (in vitro [9]; [16]): > 929 µM | CC50 (in vitro [9]; CC50 (Human Adenovirus Type 5)): > 929 µM | CC50 (in vitro [10]): > 100 µM | CC50 (in vitro [11]): > 100 µM | CC50 (in vitro [12]): > 100 µM

OC1C[C@H]2[C@H](Cn3cnc4c(NC5CCCCC5)ncnc43)[C@@H]1C[C@@H]2Cl (stereo partly drawn) [Compound 6d, (1S,4S,5S,7R)-5-Chloro-7-((6-(cyclohexylamino)-9H-purin-9-yl)methyl)bicyclo[2.2.1]heptan-2-ol]
IC50 [2, 13]: > 27 µM | activity against HSV-1 in words [3]: active against herpes | IC50 [3, 14]: 21 ± 4 µM | IC50 [4, 15]: 123 ± 14 µM | IC50 (Yellow Fever Virus; Yellow fever virus): > 100 µM | IC50 (Chikungunya Virus; Chikungunya virus): > 100 µM | IC50 (Enterovirus 71; Enterovirus A): 28 ± 13 µM | CC50 (in vitro [8]): 42 ± 3 µM | CC50 (in vitro [9]; [16]): 521 ± 48 µM | CC50 (in vitro [9]; CC50 (Human Adenovirus Type 5)): 697 ± 75 µM | CC50 (in vitro [10]): > 100 µM | CC50 (in vitro [11]): > 100 µM | CC50 (in vitro [12]): > 100 µM

— paper PMC6651170, “New HSV-1 Anti-Viral 1′-Homocarbocyclic Nucleoside Analogs with an Optically Active Substituted Bicyclo[2.2.1]Heptane Fragment as a Glycoside Moiety” (Molecules, 2019)
